Columns and labels:
[1] = tested on: chorio-allantoic membrane of an embryonated chicken egg; test: Het Cam test (tolerance on the mucosa); conditions: 1% solution, irritant effects within five minutes, tenth day of incubation
Description: Zinc coceth was tested in a 1% solution.

[2] = pH of zinc coceth sulfate; type: physicochemical
[3] = Irritant and sensitising potential
[4] = tested on: Propionibacterium acnes ATCC6919; test: Evaluation of the bactericidal activity against P. acnes (log reduction over contact time); type: cell-based; conditions: Zetesol Zn at 20% (5% active zinc coceth sulfate)
Description: The reduction over time of the log 10 of the number of germs in relation to initial number of germs (log R parameter) is evaluated.
The strain tested is Propionibacterium acnes ATCC6919.
Zetesol Zn® was tested at the concentration of 20% (i.e. 5% of active ingredient zinc coceth sulfate).
Method • placing into contact of the product to be tested with suspensions of P. acnes titrated at about 10^6 CFU/ml for 1, 5, 10 and 15 minutes. • Viable count after each duration of contact by inclusion of 1 ml of the sample in a culture agar (Columbia) • Incubation 72 hours at 36° C. in anaerobic conditions • Viable count of residual bacteria via direct counting.
Calculation of the fall in log 10:
The calculation of the fall in log 10 of the number of CFU/ml is carried out according to the formula hereinbelow: Logarithmic reduction=LOG 10(number of CFU present at TO/number of CFU remaining at Tx)
The results indicated in table 1 are the average of two independent tests (except for the duration of 10 min where only 1 test was carried out). Also see FIG. 1. […]

Zinc coceth sulfate [Zetesol ® Zn]
tolerance on the mucosa [1]: good tolerance on the mucosa
pH [2]: 4.5
irritant and sensitising potential [3]: devoid of any irritant and sensitising potential
Log Reduction in 1 minute ([4]; contact 1 min, average of two tests): 0.63 log
Log Reduction in 5 minutes ([4]; contact 5 min, average of two tests): 2.06 log
Log Reduction in 10 minutes ([4]; contact 10 min, only 1 test): 3.65 log
Log Reduction in 15 minutes ([4]; contact 15 min, average of two tests): >5.04 log
